Earlier results as cited in patent US8613946B2, “Carotenoids of enhanced bioavailability” (ISP Investment Inc., priority 2006, dated 2013).
Read-outs that look alike come from different tables or passages of the source.

[1] = classification of The Merck Index

solubility in water [1]	solubility in water (statement of The PDR For Nutritional Supplements)	Compound
insoluble in water		CC1=C[C@H](O)CC(C)(C)[C@H]1/C=C/C(C)=C/C=C/C(C)=C/C=C/C=C(C)/C=C/C=C(C)/C=C/C1=C(C)C[C@@H](O)CC1(C)C [lutein]
	insoluble in water	CC(C)=CCC/C(C)=C/C=C/C(C)=C/C=C/C(C)=C/C=C/C=C(C)/C=C/C=C(C)/C=C/C=C(\C)CCC=C(C)C [lycopene]
practically insoluble in water		CC1=CCCC(C)(C)C1/C=C/C(C)=C/C=C/C(C)=C/C=C/C=C(C)/C=C/C=C(C)/C=C/C1=C(C)CCCC1(C)C (stereo not drawn) [α-carotene]
practically insoluble in water		CC1=C(/C=C/C(C)=C/C=C/C(C)=C/C=C/C=C(C)/C=C/C=C(C)/C=C/C2=C(C)CCCC2(C)C)C(C)(C)CCC1 [β-carotene]
